Holding throughout (assay type): cell-based
Assay [1] addresses hERG potassium channel (Homo sapiens, UniProt Q12809, Y652A). In words: whole-cell patch clamp, CHO cells transiently expressing Y652A hERG.
Assay [2] has as its target hERG potassium channel (Homo sapiens, UniProt Q12809). In words: whole-cell patch clamp, HEK cells stably expressing hERG, tail current block.
Assay [3] deals with hERG potassium channel (Homo sapiens, UniProt Q12809, F656A). As to the kind of experiment: whole-cell patch clamp, CHO cells transiently expressing F656A hERG, high [K+].
Sequence of hERG potassium channel (Homo sapiens, UniProt Q12809, F656A) (Q12809 whole entry F656A): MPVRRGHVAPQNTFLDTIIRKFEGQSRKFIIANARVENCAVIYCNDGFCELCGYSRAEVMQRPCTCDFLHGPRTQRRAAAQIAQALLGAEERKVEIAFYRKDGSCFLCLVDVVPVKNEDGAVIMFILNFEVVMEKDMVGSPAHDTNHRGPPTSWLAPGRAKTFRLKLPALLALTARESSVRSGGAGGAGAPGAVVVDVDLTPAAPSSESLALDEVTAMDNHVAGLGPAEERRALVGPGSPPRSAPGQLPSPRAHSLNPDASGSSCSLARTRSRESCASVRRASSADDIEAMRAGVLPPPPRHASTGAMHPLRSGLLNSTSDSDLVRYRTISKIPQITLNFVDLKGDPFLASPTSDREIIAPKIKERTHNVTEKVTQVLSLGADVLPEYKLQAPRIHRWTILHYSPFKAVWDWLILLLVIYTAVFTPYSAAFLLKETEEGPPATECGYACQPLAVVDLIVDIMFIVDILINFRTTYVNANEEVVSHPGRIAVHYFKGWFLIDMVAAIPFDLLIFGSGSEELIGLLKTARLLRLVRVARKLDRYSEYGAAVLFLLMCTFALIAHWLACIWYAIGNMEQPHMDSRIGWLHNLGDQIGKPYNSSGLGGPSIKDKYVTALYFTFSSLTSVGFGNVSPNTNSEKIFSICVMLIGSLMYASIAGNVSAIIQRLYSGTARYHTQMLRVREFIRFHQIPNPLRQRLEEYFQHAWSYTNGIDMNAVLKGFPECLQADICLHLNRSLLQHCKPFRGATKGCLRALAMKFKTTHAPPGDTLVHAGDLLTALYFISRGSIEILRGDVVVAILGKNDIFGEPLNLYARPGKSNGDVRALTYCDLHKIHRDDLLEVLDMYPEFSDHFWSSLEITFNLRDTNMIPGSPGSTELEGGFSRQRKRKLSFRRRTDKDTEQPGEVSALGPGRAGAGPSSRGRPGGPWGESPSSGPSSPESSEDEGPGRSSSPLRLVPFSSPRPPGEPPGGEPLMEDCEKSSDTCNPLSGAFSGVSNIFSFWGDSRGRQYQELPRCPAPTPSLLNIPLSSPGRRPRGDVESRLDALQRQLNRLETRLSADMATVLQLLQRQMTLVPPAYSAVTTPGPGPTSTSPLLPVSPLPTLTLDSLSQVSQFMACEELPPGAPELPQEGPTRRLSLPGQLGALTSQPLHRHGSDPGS

Sequence of hERG potassium channel (Homo sapiens, UniProt Q12809, Y652A) (Q12809 whole entry Y652A): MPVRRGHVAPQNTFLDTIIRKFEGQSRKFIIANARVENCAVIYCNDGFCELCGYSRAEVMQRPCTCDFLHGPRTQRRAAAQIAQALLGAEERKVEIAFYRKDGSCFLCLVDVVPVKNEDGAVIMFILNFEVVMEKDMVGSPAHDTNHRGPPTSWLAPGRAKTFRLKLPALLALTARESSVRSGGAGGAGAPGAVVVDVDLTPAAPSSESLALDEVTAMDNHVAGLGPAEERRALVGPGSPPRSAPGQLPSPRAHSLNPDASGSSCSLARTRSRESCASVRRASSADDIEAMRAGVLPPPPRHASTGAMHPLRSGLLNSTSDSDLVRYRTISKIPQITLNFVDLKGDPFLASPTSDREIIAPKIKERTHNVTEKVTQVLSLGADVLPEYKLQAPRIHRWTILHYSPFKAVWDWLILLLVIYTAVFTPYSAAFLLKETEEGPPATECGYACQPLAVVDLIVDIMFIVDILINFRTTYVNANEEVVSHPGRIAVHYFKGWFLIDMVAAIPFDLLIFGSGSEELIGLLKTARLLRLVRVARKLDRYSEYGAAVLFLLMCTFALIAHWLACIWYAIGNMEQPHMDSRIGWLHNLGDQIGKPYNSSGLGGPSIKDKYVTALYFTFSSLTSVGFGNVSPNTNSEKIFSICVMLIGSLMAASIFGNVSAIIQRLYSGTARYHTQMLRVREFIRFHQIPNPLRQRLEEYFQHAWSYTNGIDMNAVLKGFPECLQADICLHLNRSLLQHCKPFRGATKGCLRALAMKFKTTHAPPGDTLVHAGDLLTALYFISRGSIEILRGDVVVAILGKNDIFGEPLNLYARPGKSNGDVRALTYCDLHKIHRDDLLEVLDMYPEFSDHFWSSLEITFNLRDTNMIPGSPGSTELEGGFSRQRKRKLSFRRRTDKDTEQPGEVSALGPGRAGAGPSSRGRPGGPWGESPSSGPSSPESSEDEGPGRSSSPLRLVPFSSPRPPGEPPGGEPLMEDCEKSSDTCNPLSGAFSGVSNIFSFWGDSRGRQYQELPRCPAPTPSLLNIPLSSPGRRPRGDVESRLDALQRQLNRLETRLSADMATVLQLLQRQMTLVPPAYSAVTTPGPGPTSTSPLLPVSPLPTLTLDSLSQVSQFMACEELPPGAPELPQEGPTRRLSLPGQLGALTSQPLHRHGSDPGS
Sequence of hERG potassium channel (Homo sapiens, UniProt Q12809) (Q12809 whole entry): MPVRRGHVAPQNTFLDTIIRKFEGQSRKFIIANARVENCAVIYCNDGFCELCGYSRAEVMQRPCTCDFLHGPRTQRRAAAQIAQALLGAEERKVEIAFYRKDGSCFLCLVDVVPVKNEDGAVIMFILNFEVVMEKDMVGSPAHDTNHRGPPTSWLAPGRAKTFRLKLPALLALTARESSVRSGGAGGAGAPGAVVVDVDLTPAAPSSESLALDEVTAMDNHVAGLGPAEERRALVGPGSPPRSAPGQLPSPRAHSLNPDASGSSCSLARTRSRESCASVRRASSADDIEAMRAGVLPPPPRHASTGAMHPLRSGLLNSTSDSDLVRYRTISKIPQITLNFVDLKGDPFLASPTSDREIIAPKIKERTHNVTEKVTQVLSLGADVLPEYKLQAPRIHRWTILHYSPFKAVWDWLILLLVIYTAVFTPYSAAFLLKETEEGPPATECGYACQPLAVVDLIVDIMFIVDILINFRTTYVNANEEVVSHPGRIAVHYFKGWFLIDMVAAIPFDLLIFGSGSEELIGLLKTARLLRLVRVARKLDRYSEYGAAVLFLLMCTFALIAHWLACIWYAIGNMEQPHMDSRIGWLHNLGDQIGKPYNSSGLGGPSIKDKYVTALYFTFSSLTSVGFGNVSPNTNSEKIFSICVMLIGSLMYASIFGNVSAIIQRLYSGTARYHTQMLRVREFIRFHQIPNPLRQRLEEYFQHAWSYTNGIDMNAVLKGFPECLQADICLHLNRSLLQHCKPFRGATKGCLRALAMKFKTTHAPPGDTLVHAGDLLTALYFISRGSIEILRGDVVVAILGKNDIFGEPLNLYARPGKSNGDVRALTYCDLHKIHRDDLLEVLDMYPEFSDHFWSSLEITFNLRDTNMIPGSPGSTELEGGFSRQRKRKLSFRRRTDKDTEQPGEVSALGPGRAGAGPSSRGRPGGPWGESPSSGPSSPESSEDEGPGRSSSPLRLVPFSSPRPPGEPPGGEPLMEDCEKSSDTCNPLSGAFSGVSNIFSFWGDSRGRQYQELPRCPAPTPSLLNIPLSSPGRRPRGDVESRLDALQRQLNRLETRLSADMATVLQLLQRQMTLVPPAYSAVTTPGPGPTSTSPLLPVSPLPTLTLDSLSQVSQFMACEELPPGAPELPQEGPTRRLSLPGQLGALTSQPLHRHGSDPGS

Regarding `Cc1cccc(C)c1OCC(C)N` (stereo not drawn) [mexiletine], the IC50 in assay [1] came to 41.6 ± 6.6 µM; in assay [2], 3.7 ± 0.7 µM; in assay [3], 111 ± 1.8 µM.
